Common to all, as to experiment: relative viability (nuclei count vs DMSO), 5 days (fraction); higher = more cells survive
Compound in assay [1]: N[C@@H]1CCCN(c2c(/C=C3\SC(=O)NC3=O)cccc2-c2ccccc2)C1 [AZD1208] + Nc1nc2[nH]cc(CCc3ccc(C(=O)N[C@@H](CCC(=O)O)C(=O)O)cc3)c2c(=O)[nH]1 [Pemetrexed] (partner 0.2 µM)
In outline:
(§1)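 Dosing by pin tool came one day after lung cancer cell lines were seeded in 1536-well plates, using either one drug or a fixed anchor-drug dose plus five library-drug doses (not always all listed) in √10 steps. After 5 days, nuclei were counted on 4× images. Relative viability is treated-well nuclei count divided by vehicle-well nuclei count, and values are medians of duplicate plates.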

Compound in assay [2]: N[C@@H]1CCCN(c2c(/C=C3\SC(=O)NC3=O)cccc2-c2ccccc2)C1 [AZD1208] + CS(=O)(=O)N1CCN(Cc2cc3nc(-c4cccc5[nH]ncc45)nc(N4CCOCC4)c3s2)CC1 [Pictilisib] (partner 1 µM)
In outline:
as §1

Compound in assay [3]: CN1CCN(CC1)C2=CC(=C(C=C2)NC3=NC(=C(S3)C(=O)C4=C(C=CC=C4Cl)Cl)N)OC [XMD14-99] + CC(=O)c1c(C)c2cnc(Nc3ccc(N4CCNCC4)cn3)nc2n(C2CCCC2)c1=O [Palbociclib] (partner 0.5 µM)
In outline: as §1

Compound in assay [4]: CN1CCN(CC1)C2=CC(=C(C=C2)NC3=NC(=C(S3)C(=O)C4=C(C=CC=C4Cl)Cl)N)OC [XMD14-99] + Cc1nc(NC(=O)N2CCC[C@H]2C(N)=O)sc1-c1ccnc(C(C)(C)C(F)(F)F)c1 [Alpelisib] (partner 2 µM)
In a few lines:
as §1

For the cell line NCI-H2347, the relative viability in assay [1] (first compound 0.08 µM) was found to be 0.447; in assay [1] (first compound 0.253 µM), 0.423; in assay [1] (first compound 0.8 µM), 0.468; in assay [1] (first compound 2.53 µM), 0.439; in assay [1] (first compound 8 µM) it was 0.444; in assay [2] (first compound 0.08 µM), 0.467. For the same cell line, the relative viability is 0.782 in assay [2] (first compound 0.253 µM); 0.558 in assay [2] (first compound 0.8 µM); 0.495 in assay [2] (first compound 2.53 µM); 0.495 in assay [2] (first compound 8 µM); 0.439 in assay [3] (first compound 0.08 µM); 0.43 in assay [3] (first compound 0.8 µM). In addition, the relative viability in assay [3] (first compound 2.53 µM) was 0.4; in assay [3] (first compound 8 µM), 0.416; in assay [4] (first compound 0.08 µM), 0.995; in assay [4] (first compound 0.8 µM), 0.984; in assay [4] (first compound 2.53 µM), 0.958; in assay [4] (first compound 8 µM), 0.572.

In the case of LCLC-97TM1, the relative viability in assay [1] (first compound 0.08 µM) came to 0.188; in assay [1] (first compound 0.253 µM), 0.176; in assay [1] (first compound 0.8 µM) it was 0.125; in assay [1] (first compound 2.53 µM) it was 0.175; in assay [1] (first compound 8 µM), 0.171; in assay [2] (first compound 0.08 µM), 0.164. The relative viability stood at 0.175 in assay [2] (first compound 0.253 µM); 0.121 in assay [2] (first compound 2.53 µM); 0.145 in assay [2] (first compound 8 µM); 0.197 in assay [3] (first compound 0.08 µM); 0.239 in assay [3] (first compound 0.8 µM); 0.321 in assay [3] (first compound 2.53 µM). Further, the relative viability in assay [3] (first compound 8 µM) amounted to 0.203; in assay [4] (first compound 0.08 µM), 0.263; in assay [4] (first compound 0.8 µM), 0.201; in assay [4] (first compound 2.53 µM), 0.202; in assay [4] (first compound 8 µM) it was 0.202.

For EPLC-272H, the relative viability in assay [1] (first compound 0.08 µM) was 0.353; in assay [1] (first compound 0.253 µM), 0.422; in assay [1] (first compound 0.8 µM) it was 0.376; in assay [1] (first compound 2.53 µM), 0.342; in assay [1] (first compound 8 µM) it was 0.406; in assay [2] (first compound 0.08 µM), 0.362. For the same cell line, the relative viability was 0.278 in assay [2] (first compound 0.253 µM); 0.349 in assay [2] (first compound 0.8 µM); 0.324 in assay [2] (first compound 2.53 µM); 0.271 in assay [2] (first compound 8 µM); 0.306 in assay [3] (first compound 0.08 µM); 0.299 in assay [3] (first compound 0.8 µM). Further, the relative viability in assay [3] (first compound 2.53 µM) came out at 0.324; in assay [3] (first compound 8 µM), 0.347; in assay [4] (first compound 0.08 µM), 0.938; in assay [4] (first compound 0.8 µM) it was 1.01; in assay [4] (first compound 2.53 µM) it was 0.928; in assay [4] (first compound 8 µM), 0.92.

As for NCI-H1915, the relative viability in assay [1] (first compound 0.08 µM) was found to be 0.452; in assay [1] (first compound 0.253 µM), 0.483; in assay [1] (first compound 0.8 µM), 0.528; in assay [1] (first compound 2.53 µM) it was 0.462; in assay [1] (first compound 8 µM), 0.443; in assay [2] (first compound 0.08 µM) it was 0.874. The relative viability was determined as 0.899 in assay [2] (first compound 0.253 µM); 0.832 in assay [2] (first compound 0.8 µM); 0.849 in assay [2] (first compound 2.53 µM); 0.84 in assay [2] (first compound 8 µM); 0.555 in assay [3] (first compound 0.08 µM); 0.552 in assay [3] (first compound 0.8 µM). For the same cell line, the relative viability was determined as 0.516 in assay [3] (first compound 2.53 µM); 0.517 in assay [3] (first compound 8 µM); 1.09 in assay [4] (first compound 0.08 µM); 0.984 in assay [4] (first compound 0.8 µM); 0.955 in assay [4] (first compound 2.53 µM); 0.925 in assay [4] (first compound 8 µM).

On to NCI-H3122, for which the relative viability in assay [1] (first compound 0.08 µM) turned out to be 0.201; in assay [1] (first compound 0.253 µM) it was 0.187; in assay [1] (first compound 0.8 µM), 0.195; in assay [1] (first compound 2.53 µM) it was 0.207; in assay [1] (first compound 8 µM), 0.187; in assay [2] (first compound 0.08 µM), 0.506. In addition, the relative viability in assay [2] (first compound 0.253 µM) stood at 0.486; in assay [2] (first compound 0.8 µM) it was 0.447; in assay [2] (first compound 2.53 µM) it was 0.481; in assay [2] (first compound 8 µM), 0.524; in assay [3] (first compound 0.08 µM) it was 0.197; in assay [3] (first compound 0.8 µM), 0.167. Also, the relative viability turned out to be 0.213 in assay [3] (first compound 2.53 µM); 0.147 in assay [3] (first compound 8 µM); 0.76 in assay [4] (first compound 0.08 µM); 0.741 in assay [4] (first compound 0.8 µM); 0.542 in assay [4] (first compound 2.53 µM); 0.319 in assay [4] (first compound 8 µM).

For the cell line NCI-H441, the relative viability worked out at 0.234 in assay [1] (first compound 0.08 µM); 0.263 in assay [1] (first compound 0.253 µM); 0.237 in assay [1] (first compound 0.8 µM); 0.263 in assay [1] (first compound 2.53 µM); 0.256 in assay [1] (first compound 8 µM); 0.343 in assay [2] (first compound 0.08 µM). Further, the relative viability was found to be 0.427 in assay [2] (first compound 0.253 µM); 0.34 in assay [2] (first compound 0.8 µM); 0.314 in assay [2] (first compound 2.53 µM); 0.305 in assay [2] (first compound 8 µM); 0.223 in assay [3] (first compound 0.08 µM); 0.19 in assay [3] (first compound 0.8 µM). Besides, the relative viability in assay [3] (first compound 2.53 µM) was 0.225; in assay [3] (first compound 8 µM), 0.22; in assay [4] (first compound 0.08 µM), 0.773; in assay [4] (first compound 0.8 µM), 0.598; in assay [4] (first compound 2.53 µM) it was 0.68; in assay [4] (first compound 8 µM), 0.706.

For the origin of these results see the supplement of paper PMC10307832.
